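Tested at 5 concentrations; 48 h exposure; 96-well plates; endpoints linearly interpolated, else capped at highest concentration. Here, GI50 denotes the concentration required for 50% inhibition of growth. The concentration for full growth arrest is given as TGI.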
Legend:
Assay in all cases: NCI tumour cell line growth inhibition, 48 h
SNB-19 CNS = system: SNB-19 CNS
SK-MEL-5 melanoma = system: SK-MEL-5 melanoma
CCRF-CEM leukemia = system: CCRF-CEM leukemia
HOP-92 NSCLC = system: HOP-92 NSCLC
HCT-15 colon = system: HCT-15 colon
T-47D breast = system: T-47D breast
U251 CNS = system: U251 CNS
NCI-H226 lung = system: NCI-H226 lung
COLO 205 colon = system: COLO 205 colon
MCF7 breast = system: MCF7 breast

SMILES	GI50 (SNB-19 CNS)	TGI (SNB-19 CNS)	GI50 (SK-MEL-5 melanoma)	TGI (SK-MEL-5 melanoma)	GI50 (CCRF-CEM leukemia)	TGI (CCRF-CEM leukemia)	GI50 (HOP-92 NSCLC)	TGI (HOP-92 NSCLC)	GI50 (HCT-15 colon)	TGI (HCT-15 colon)	GI50 (T-47D breast)	TGI (T-47D breast)	GI50 (U251 CNS)	TGI (U251 CNS)	GI50 (NCI-H226 lung)	TGI (NCI-H226 lung)	GI50 (COLO 205 colon)	TGI (COLO 205 colon)	GI50 (MCF7 breast)	TGI (MCF7 breast)
C/C=C/[C@@H]1O[C@@H]2COC(=O)C2=C[C@@H]1O	24.2 µM	> 57 µM	16.7 µM	31.5 µM	2.94 µM	> 100 µM	0.747 µM	9.35 µM	16.9 µM	39.8 µM	6.31 µM	24.2 µM	18.9 µM	38.3 µM	17.6 µM	42 µM	2.78 µM	> 19.6 µM	33.5 µM	> 100 µM
O=C1CSC(=S)N1/N=C/c1ccc(Cl)c([N+](=O)[O-])c1		60.8 µM		> 100 µM		> 100 µM		67.7 µM		42.1 µM		59.3 µM		35.3 µM		> 100 µM		> 100 µM		32.7 µM
c1ccc(-c2n(Cc3ccc4ccccc4n3)cc[n+]2Cc2ccc3ccccc3c2)cc1	0.865 µM	3.54 µM	0.538 µM	1.55 µM	1.22 µM	6.18 µM	0.175 µM	1.46 µM	5.21 µM	17.9 µM	0.378 µM	4.36 µM	0.923 µM	3.25 µM	1.3 µM	7.33 µM	0.752 µM	2.26 µM	1.21 µM	3.43 µM
CCCCCCCCCCSC(=N)N (tested in a mixture with another compound)	4.28 µM	18.2 µM	2.83 µM	8.55 µM	3.65 µM	17 µM	2.66 µM	8.83 µM	2.12 µM	5.06 µM	1.86 µM	4.95 µM	1.77 µM	3.62 µM	18.3 µM	40.1 µM	1.86 µM	3.78 µM	2.75 µM	10.4 µM
CCOc1ccc(NC2=CC(=O)C(=O)c3ccccc32)cc1		9.46 µM		2.95 µM		56.8 µM		30.7 µM		6.72 µM		27.9 µM		13.1 µM		13.3 µM		10.9 µM		3.93 µM
CC(=O)OC1(C)N=NC2(CCCCC2)O1 (stereo not given)		> 100 µM		> 100 µM		> 100 µM		> 100 µM		> 100 µM		> 100 µM		> 100 µM		> 100 µM		> 100 µM		> 100 µM
O=C(Nc1nn2c(-c3cc(C(F)(F)F)cc(C(F)(F)F)c3)nnc2s1)C1CCCC1	0.614 µM	> 100 µM	0.251 µM	1.74 µM	0.459 µM	> 82.1 µM	0.197 µM	0.876 µM	0.665 µM	> 100 µM	0.375 µM	> 24.6 µM	0.854 µM	> 100 µM	1.23 µM	> 100 µM	1.49 µM	2.86 µM	0.512 µM	> 33.7 µM
CN1CCN(C(=O)COc2ccc(C34CC5CC(CC(C5)C3)C4)cc2)CC1	13.6 µM	26.8 µM	10.3 µM	22.7 µM	5.44 µM	27.8 µM	1.47 µM	7.23 µM	7.33 µM	21 µM	12.9 µM	39.2 µM	10.8 µM	25 µM	14 µM	37.4 µM	5.53 µM	20.5 µM	12.7 µM	29.7 µM
COC(=O)/C=C/c1cc(OC(C)=O)c2c(c1)[C@@H](C(=O)OC)[C@H](c1ccc(OC(C)=O)c(OC(C)=O)c1)O2	0.431 µM	> 100 µM	0.0493 µM	2.34 µM	0.039 µM	34.4 µM	0.769 µM	22.4 µM	0.0421 µM	> 100 µM	0.452 µM	67.3 µM	0.114 µM	41 µM	1.71 µM	27.4 µM	3.57 µM	24.7 µM	0.0339 µM	> 70.7 µM
c1ccc(Nc2ncc(-c3ccccc3)o2)cc1	> 25 µM	> 25 µM	> 25 µM	> 25 µM	> 25 µM	> 25 µM	> 25 µM	> 25 µM	24.3 µM	> 25 µM	> 25 µM	> 25 µM	> 25 µM	> 25 µM	> 25 µM	> 25 µM	> 25 µM	> 25 µM	12.4 µM	> 25 µM
CC[C@@H](c1ccc(O)c(O)c1)[C@@H](CC)c1ccc(O)c(O)c1	40.4 µM	> 100 µM	13.6 µM	28.9 µM	2.88 µM	9.39 µM	2.02 µM	6.09 µM	2.39 µM	9.41 µM	2.48 µM	7.96 µM	15.8 µM	37.8 µM	21.1 µM	44 µM	1.97 µM	4.11 µM	34.9 µM	> 100 µM
COc1ccccc1NC(=O)c1cc2cc(Br)ccc2cc1O	3.46 µM	16.1 µM	1.46 µM	3.11 µM	2.62 µM	9.5 µM	1.34 µM	4.78 µM	2.37 µM	8.54 µM	2 µM	10.7 µM	2.65 µM	9.58 µM	1.65 µM	6.06 µM	4 µM	15.8 µM	1.76 µM	9.3 µM
Cc1cc2c(cc1C)[n+](=O)c(C(=O)c1ccccc1)c(C(F)F)n2[O-]	44.2 µM	> 100 µM	9.3 µM	25 µM	5.12 µM	29.6 µM	37.7 µM	> 100 µM	6.76 µM	> 100 µM	30.3 µM	> 100 µM	12.7 µM	> 100 µM	25.5 µM	72.9 µM	9.83 µM	35.5 µM	12.1 µM	41.1 µM
CC1(C)[C@@H](NOCCCN)CC[C@]2(C)[C@H]3C(=O)C=C4[C@@H]5C[C@](C)(C(=O)O)CC[C@]5(C)CC[C@@]4(C)[C@]3(C)CC[C@@H]12	13.5 µM	43.7 µM	3.17 µM	10.9 µM	7.52 µM	> 100 µM	2.38 µM	12.3 µM	3.6 µM	> 100 µM	3.42 µM	22.4 µM	4.49 µM	25.4 µM	5.46 µM	19.2 µM	2.41 µM	6.34 µM	4.09 µM	17.1 µM
O=C(Nc1cccc(C(F)(F)F)c1)Nc1cccc(C(F)(F)F)c1	0.658 µM	9.93 µM	1.28 µM	2.55 µM	0.721 µM	10.8 µM	0.786 µM	6.08 µM	0.464 µM	3.41 µM	0.398 µM	2.94 µM	0.509 µM	3.14 µM	1.01 µM	3.66 µM	0.985 µM	2.59 µM	0.852 µM	10 µM
Br[Se]c1ccccn1		24.8 µM		28.9 µM		> 100 µM		33 µM		38.4 µM		54.1 µM		29 µM		36.8 µM		30.8 µM		32.5 µM
O=C(NC1CCCCC1)NS(=O)(=O)c1ccc(N2N=C3c4ccccc4CC3C2c2ccc(Cl)cc2)cc1 (stereo not given)	21.6 µM	97.5 µM	3.69 µM	18.3 µM	3.85 µM	23.8 µM	10.8 µM	31.5 µM	14.5 µM	43.7 µM	22.6 µM	> 100 µM	10.1 µM	21.7 µM	19.8 µM	49.1 µM	11.7 µM	34 µM	2.52 µM	22.2 µM
COc1c2ccccc2c(OC)c2[nH]c(=O)ccc12	2.02 µM	4.11 µM	0.847 µM	2.19 µM	> 24.5 µM	> 100 µM	33.5 µM	> 100 µM	1.78 µM	4.53 µM	21.5 µM	> 100 µM	4 µM	> 69 µM	2.37 µM	7.22 µM	4.3 µM	14.9 µM	4.37 µM	> 54.8 µM
COCCn1cc(-c2nc(-c3cc4cccnc4[nH]3)cs2)c2cc(OC)ccc21	6.48 µM	> 100 µM	4.47 µM	21.4 µM	4.54 µM	> 100 µM	0.387 µM	2.46 µM	2.26 µM	21.5 µM	0.033 µM	0.992 µM	3.6 µM	> 59.3 µM	1.57 µM	27.6 µM	4.01 µM	24.7 µM	0.0433 µM	2.67 µM
CC(=O)N[C@@H](Cc1ccc(OP(=O)(O)O)cc1)C(=O)N[C@H]1CCC(=O)N2CCC[C@@H](C(=O)Nc3cccc4ccccc34)N2C1=O	> 25 µM	> 25 µM	> 25 µM	> 25 µM	> 25 µM	> 25 µM	> 23.9 µM	> 25 µM	> 25 µM	> 25 µM	> 25 µM	> 25 µM	> 25 µM	> 25 µM	> 25 µM	> 25 µM	> 25 µM	> 25 µM	> 25 µM	> 25 µM
Fc1cc(-c2nnc3n2N=C(c2ccc(Cl)cc2)CS3)c(Cl)cc1Cl	19.1 µM	51.1 µM	3.91 µM	15 µM	0.328 µM	1.13 µM	13.7 µM	36.1 µM	4.82 µM	13.8 µM	2.76 µM	20 µM	11.4 µM	28.4 µM	17.8 µM	40.6 µM	7.08 µM	49.1 µM	4.56 µM	17.9 µM
